Experimental data: patent publication US7462600B2, “Macrolides” (Pfizer Inc, priority 2004, dated 2008)
≈ marks a conversion by molar mass, not a printed value.

Key:
Assay type in all cases: cell-based
[1] = tested on: Haemophilus influenzae 1218; test: MIC, microtiter broth dilution (NCCLS M100-S14), H. influenzae 1218 (susceptible); conditions: Haemophilus influenzae 1218
In short: (§1)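 Microtiter broth dilution; interpretation per NCCLS M100-S14; endpoint = MIC. Stock: 40 mg/ml in DMSO.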

[2] = tested on: Streptococcus pneumoniae 1175; conditions: Streptococcus pneumoniae 1175; microtiter broth dilution
In short: as §1

[3] = tested on: Streptococcus pneumoniae 1095; conditions: Streptococcus pneumoniae 1095; microtiter broth dilution
In short: as §1

[4] = tested on: Streptococcus pyogenes 1079; test: MIC, microtiter broth dilution (NCCLS M100-S14), S. pyogenes 1079 (ermB); conditions: Streptococcus pyogenes 1079
In short: as §1

[5] = tested on: Streptococcus pneumoniae 1016; test: MIC, microtiter broth dilution (NCCLS M100-S14), S. pneumoniae 1016 (susceptible); conditions: Streptococcus pneumoniae 1016
In short: as §1

Compound	MIC H. influenzae 1218 [1] [µg/mL]	MIC S. pneumo. 1175 [2] [µg/mL]	MIC S. pneumo. 1095 [3] [µg/mL]	MIC S. pyogenes 1079 [4] [µg/mL]	MIC S. pneumo. 1016 [5] [µg/mL]
CCC1OC(=O)C(C)C(=O)C(C)C(OC2OC(C)CC(N(C)C)C2O)C(C)(OC)CC(C)C(=O)C(C)C2N(C3CN(S(=O)(=O)c4cccc5nccnc45)C3)C(=O)OC12C (centres unmarked) [Example 3.93, 3-descladinosyl-11,12-dideoxy-4-O-methyl-3-oxo-12,11-(oxycarbonyl-(1-(quinoxaline-5-sulfonyl)-azetidin-3-yl)-imino)-erythromycin A]	0.25 (≈ 0.291 µM)	<0.06	<0.06	1 (≈ 1.16 µM)	<0.06
CCC1OC(=O)C(C)C(=O)C(C)C(OC2OC(C)CC(N(C)C)C2O)C(C)(OC)CC(C)C(=O)C(C)C2N(C3CN(S(=O)(=O)c4ccc5c(cnn5C)c4)C3)C(=O)OC12C (centres unmarked) [Example 3.94, 3-descladinosyl-11,12-dideoxy-6-O-methyl-3-oxo-12,11-(oxycarbonyl-(1-(1-methyl-1H-indazole-5-sulfonyl)-azetidin-3-yl)-imino)erythromycin A]	0.25 (≈ 0.29 µM)	<0.06	0.12 (≈ 0.139 µM)	0.25 (≈ 0.29 µM)	<0.06
CCC1OC(=O)C(C)C(=O)C(C)C(OC2OC(C)CC(N(C)C)C2O)C(C)(OC)CC(C)C(=O)C(C)C2N(C3CN(S(=O)(=O)c4ccc5c(c4)CS(=O)(=O)C5)C3)C(=O)OC12C (centres unmarked) [Example 3.95]	0.5 (≈ 0.557 µM)	<0.06	<0.06	0.12 (≈ 0.134 µM)	<0.06
CCC1OC(=O)C(C)C(=O)C(C)C(OC2OC(C)CC(N(C)C)C2O)C(C)(OC)CC(C)C(=O)C(C)C2N(C3CN(S(=O)(=O)c4ccc5nn(C)cc5c4)C3)C(=O)OC12C (centres unmarked) [Example 3.96, 3-descladinosyl-11,12-dideoxy-6-O-methyl-3-oxo-12,11-(oxycarbonyl-(1-(2-methyl-2H-indazole-5-sulfonyl)-azetidin-3-yl)-imino)erythromycin A]	1 (≈ 1.16 µM)	2 (≈ 2.32 µM)	0.12 (≈ 0.139 µM)	1 (≈ 1.16 µM)	<0.06
CCC1OC(=O)C(C)(F)C(=O)C(C)C(OC2OC(C)CC(N(C)C)C2O)C(C)(OC)CC(C)C(=O)C(C)C2N(C3CN(S(=O)(=O)c4cccc5nccnc45)C3)C(=O)OC12C (centres unmarked) [Example 3.98, 3-descladinosyl-11,12-dideoxy-2-fluoro-6-O-methyl-3-oxo-12,11-(oxycarbonyl-(1-(quinoxaline-5-sulfonyl)-azetidin-3-yl)-imino)-erythromycin A]	0.25 (≈ 0.285 µM)	<0.063	<0.063	0.25 (≈ 0.285 µM)	<0.063
CCOc1ccc(S(=O)(=O)N2CC(N3C(=O)OC4(C)C(CC)OC(=O)C(C)C(=O)C(C)C(OC5OC(C)CC(N(C)C)C5O)C(C)(OC)CC(C)C(=O)C(C)C34)C2)cc1C#N (centres unmarked) [Example 3.99, 3-descladinosyl-11,12-dideoxy-6-O-methyl-3-oxo-12,11-(oxycarbonyl-(1-(3-cyano-4-ethoxybenzene-1-sulfonyl)-azetidin-3-yl)-imino)-erythromycin A]	1.41 (≈ 1.61 µM)	<0.063	<0.063	0.25 (≈ 0.285 µM)	<0.063
CCC1OC(=O)C(C)C(=O)C(C)C(OC2OC(C)CC(N(C)C)C2O)C(C)(OC)CC(C)C(=O)C(C)C2N(C3CN(S(=O)(=O)c4cccc5ncccc45)C3)C(=O)OC12C (centres unmarked) [Example 3.100, 3-descladinosyl-11,12-dideoxy-6-O-methyl-3-oxo-12,11-(oxycarbonyl-(1-(quinoline-5-sulfonyl)-azetidin-3-yl)-imino)-erythromycin A]	0.5 (≈ 0.582 µM)	<0.063	<0.063	0.125 (≈ 0.146 µM)	<0.063
CCC1OC(=O)C(C)C(=O)C(C)C(OC2OC(C)CC(N(C)C)C2O)C(C)(OC)CC(C)C(=O)C(C)C2N(C3CN(S(=O)(=O)c4ccc(OC)c5ncccc45)C3)C(=O)OC12C (centres unmarked) [Example 3.101, 3-descladinosyl-11,12-dideoxy-6-O-methyl-3-oxo-12,11-(oxycarbonyl-(1-(8-methoxyquinoline-5-sulfonyl)-azetidin-3-yl)-imino)-erythromycin A]	0.125 (≈ 0.141 µM)	<0.063	<0.063	<0.063	<0.063
CCOc1ccc(S(=O)(=O)N2CC(N3C(=O)OC4(C)C(CC)OC(=O)C(C)C(=O)C(C)C(OC5OC(C)CC(N(C)C)C5O)C(C)(OC)CC(C)C(=O)C(C)C34)C2)c2cccnc12 (centres unmarked) [Example 3.102, 3-descladinosyl-11,12-dideoxy-6-O-methyl-3-oxo-12,11-(oxycarbonyl-(1-(8-ethoxyquinoline-5-sulfonyl)-azetidin-3-yl)-imino)erythromycin A]	1 (≈ 1.11 µM)	<0.063	<0.063	<0.063	<0.063
CCOc1ccc(S(=O)(=O)N2CC(N3C(=O)OC4(C)C(CC)OC(=O)C(C)(F)C(=O)C(C)C(OC5OC(C)CC(N(C)C)C5O)C(C)(OC)CC(C)C(=O)C(C)C34)C2)cc1C#N (centres unmarked) [Example 3.103, 3-descladinosyl-11,12-dideoxy-2-fluoro-6-O-methyl-3-oxo-12,11-(oxycarbonyl-(1-(3-cyano-4-ethoxybenzene-1-sulfonyl)-azetidin-3-yl)-imino)-erythromycin A]	2 (≈ 2.23 µM)	<0.063	<0.063	0.5 (≈ 0.559 µM)	<0.063
CCC1OC(=O)C(C)C(=O)C(C)C(OC2OC(C)CC(N(C)C)C2O)C(C)(OC)CC(C)C(=O)C(C)C2N(C3CN(S(=O)(=O)c4ccc5cnsc5c4)C3)C(=O)OC12C (centres unmarked) [Example 3.104, 3-descladinosyl-11,12-dideoxy-6-O-methyl-3-oxo-12,11-(oxycarbonyl-(1-(benzo[d]isothiazole-6-sulfonyl)-azetidin-3-yl)-imino)-erythromycin A]	<0.063	<0.063	<0.063	1 (≈ 1.16 µM)	<0.063
CCOc1ccc(S(=O)(=O)N2CC(N3C(=O)OC4(C)C(CC)OC(=O)C(C)C(=O)C(C)C(OC5OC(C)CC(N(C)C)C5O)C(C)(OC)CC(C)C(=O)C(C)C34)C2)cc1OC (centres unmarked) [Example 3.105, 3-descladinosyl-11,12-dideoxy-6-O-methyl-3-oxo-12,11-(oxycarbonyl-(1-(4-ethoxy-3-methoxybenzene-1-sulfonyl)-azetidin-3-yl)-imino)-erythromycin A]	0.25 (≈ 0.283 µM)	<0.063	<0.063	1 (≈ 1.13 µM)	<0.063
CCC1OC(=O)C(C)C(=O)C(C)C(OC2OC(C)CC(N(C)C)C2O)C(C)(OC)CC(C)C(=O)C(C)C2N(C3CN(S(=O)(=O)c4cc(Cl)ccc4OC)C3)C(=O)OC12C (centres unmarked) [Example 3.106, 3-descladinosyl-11,12-dideoxy-6-O-methyl-3-oxo-12,11-(oxycarbonyl-(1-(5-chloro-2-methoxybenzene-1-sulfonyl)-azetidin-3-yl)-imino)-erythromycin A]	0.5 (≈ 0.573 µM)	<0.063	<0.063	0.5 (≈ 0.573 µM)	<0.063
CCC1OC(=O)C(C)C(=O)C(C)C(OC2OC(C)CC(N(C)C)C2O)C(C)(OC)CC(C)C(=O)C(C)C2N(C3CN(S(=O)(=O)c4cccc(Cl)c4)C3)C(=O)OC12C (centres unmarked) [Example 3.107, 3-descladinosyl-11,12-dideoxy-6-O-methyl-3-oxo-12,11-(oxycarbonyl-(1-(3-chlorobenzene-1-sulfonyl)-azetidin-3-yl)-imino)-erythromycin A]	025 (≈ 29.7 µM)	<0.063	<0.063	1 (≈ 1.19 µM)	<0.063
CCC1OC(=O)C(C)C(=O)C(C)C(OC2OC(C)CC(N(C)C)C2O)C(C)(OC)CC(C)C(=O)C(C)C2N(C3CN(S(=O)(=O)c4ccc(NC(C)=O)cc4)C3)C(=O)OC12C (centres unmarked) [Example 3.108, 3-descladinosyl-11,12-dideoxy-6-O-methyl-3-oxo-12,11-(oxycarbonyl-(1-(4-acetamidobenzene-1-sulfonyl)-azetidin-3-yl)-imino)-erythromycin A]	1 (≈ 1.16 µM)	0.5 (≈ 0.578 µM)	<0.063	0.25 (≈ 0.289 µM)	<0.063
CCC1OC(=O)C(C)C(=O)C(C)C(OC2OC(C)CC(N(C)C)C2O)C(C)(OC)CC(C)C(=O)C(C)C2N(C3CN(S(=O)(=O)c4ccc(OC)c(OCC#N)c4)C3)C(=O)OC12C (centres unmarked) [Example 3.109, 3-descladinosyl-11,12-dideoxy-6-O-methyl-3-oxo-12,11-(oxycarbonyl-(1-(3-(cyanomethoxy)-4-methoxybenzene-1-sulfonyl)-azetidin-3-yl)-imino)-erythromycin A]	<0.063	<0.063	<0.063	0.125 (≈ 0.14 µM)	<0.063
